Reference: patent US10844077B2, “Thiazolyl-containing compounds for treating proliferative diseases” (Dana-Farber Cancer Institute, Inc., priority 2014, dated 2020)

Key:
Assay in all cases: KINATIV assay of compounds I-3 and I-9, lysate directly labeled with ATP-biotin probe (no GF)
Format in all cases: cell-based
[1] = molecular target: kinases in BCWM.1 cells (Homo sapiens, UniProt Q16539); details: p38a, 1 μM, 90 min, no GF
Method: (§1) The cells were harvested and lysed. […] Bound kinases were identified and quantitated by ACTIVX as described in Patricelli et al., Biochemistry, 2007, 46(2): 350-358. The compounds were tested in duplicates against duplicate or quadruplicate control samples.

[2] = molecular target: kinases in BCWM.1 cells (Homo sapiens, UniProt Q9H2G2); details: SLK; Lys2; 1 μM, 90 min; no GF
Method: as §1

[3] = molecular target: kinases in BCWM.1 cells (Homo sapiens, UniProt Q96S38); details: RSKL1; ATP; 1 μM, 90 min; no GF
Method: as §1

[4] = molecular target: kinases in BCWM.1 cells (Homo sapiens, UniProt P29597); details: TYK2 domain2; Activation Loop; 1 μM, 90 min; no GF
Method: as §1

[5] = molecular target: kinases in BCWM.1 cells (Homo sapiens, UniProt P51955); details: NEK2; Lys2; 1 μM, 90 min; no GF
Method: as §1

[6] = molecular target: kinases in BCWM.1 cells (Homo sapiens, UniProt Q8TDX7); details: NEK7; Lys1; 1 μM, 90 min; no GF
Method: as §1

[7] = molecular target: kinases in BCWM.1 cells (Homo sapiens, UniProt Q15208); details: NDR1; Lys2; 1 μM, 90 min; no GF
Method: as §1

[8] = molecular target: kinases in BCWM.1 cells (Homo sapiens, UniProt Q9NYL2); details: ZAK; Lys1; 1 μM, 90 min; no GF
Method: as §1

[9] = molecular target: kinases in BCWM.1 cells (Homo sapiens, UniProt Q9NZJ5); details: PEK; Lys2; 1 μM, 90 min; no GF
Method: as §1

[10] = molecular target: kinases in BCWM.1 cells (Homo sapiens, UniProt Q9UBE8); details: NLK; Lys2; 1 μM, 90 min; no GF
Method: as §1

[11] = molecular target: kinases in BCWM.1 cells (Homo sapiens, UniProt P48736); details: PIK3CG; ATP; 1 μM, 90 min; no GF
Method: as §1

[12] = molecular target: kinases in BCWM.1 cells (Homo sapiens, UniProt Q96PY6); details: NEK1; Lys2; 1 μM, 90 min; no GF
Method: as §1

[13] = molecular target: kinases in BCWM.1 cells (Homo sapiens, UniProt Q13464); details: ROCK1; Protein Kinase Domain; 1 μM, 90 min; no GF
Method: as §1

[14] = molecular target: kinases in BCWM.1 cells (Homo sapiens, UniProt O95747); details: OSR1; Lys2; 1 μM, 90 min; no GF
Method: as §1

[15] = molecular target: kinases in BCWM.1 cells (Homo sapiens, UniProt P53350); details: PLK1; Lys1; 1 μM, 90 min; no GF
Method: as §1

[16] = molecular target: kinases in BCWM.1 cells (Homo sapiens, UniProt Q96Q15); details: SMG1; ATP; 1 μM, 90 min; no GF
Method: as §1

[17] = molecular target: kinases in BCWM.1 cells (Homo sapiens, UniProt Q7RTN6); details: STLK5; Activation Loop; 1 μM, 90 min; no GF
Method: as §1

[18] = molecular target: kinases in BCWM.1 cells (Homo sapiens, UniProt Q9BZL6); details: PKD2; Lys1; 1 μM, 90 min; no GF
Method: as §1

[19] = molecular target: kinases in BCWM.1 cells (Homo sapiens, UniProt P23443); details: p70S6K; Lys2; 1 μM, 90 min; no GF
Method: as §1

[20] = molecular target: kinases in BCWM.1 cells (Homo sapiens, UniProt O00750); details: PIK3C2B; ATP; 1 μM, 90 min; no GF
Method: as §1

[21] = molecular target: kinases in BCWM.1 cells (Homo sapiens, UniProt Q86SG6); details: NEK8; Lys2; 1 μM, 90 min; no GF
Method: as §1

[22] = molecular target: kinases in BCWM.1 cells (Homo sapiens, UniProt Q14289); details: PYK2; Activation Loop; 1 μM, 90 min; no GF
Method: as §1

[23] = molecular target: kinases in BCWM.1 cells (Homo sapiens, UniProt Q16512); details: PKN1; Lys1; 1 μM, 90 min; no GF
Method: as §1

[24] = molecular target: kinases in BCWM.1 cells (Homo sapiens, UniProt P43405); details: SYK; Activation Loop; 1 μM, 90 min; no GF
Method: as §1

[25] = molecular target: kinases in BCWM.1 cells (Homo sapiens, UniProt O00329); details: PIK3CD; ATP; 1 μM, 90 min; no GF
Method: as §1

[26] = molecular target: kinases in BCWM.1 cells (Homo sapiens, UniProt Q9UKE5); details: ZC2/TNIK; Lys1; 1 μM, 90 min; no GF
Method: as §1

Chain of kinases in BCWM.1 cells (Homo sapiens, UniProt Q16539) (Q16539 2-360 limits assumed): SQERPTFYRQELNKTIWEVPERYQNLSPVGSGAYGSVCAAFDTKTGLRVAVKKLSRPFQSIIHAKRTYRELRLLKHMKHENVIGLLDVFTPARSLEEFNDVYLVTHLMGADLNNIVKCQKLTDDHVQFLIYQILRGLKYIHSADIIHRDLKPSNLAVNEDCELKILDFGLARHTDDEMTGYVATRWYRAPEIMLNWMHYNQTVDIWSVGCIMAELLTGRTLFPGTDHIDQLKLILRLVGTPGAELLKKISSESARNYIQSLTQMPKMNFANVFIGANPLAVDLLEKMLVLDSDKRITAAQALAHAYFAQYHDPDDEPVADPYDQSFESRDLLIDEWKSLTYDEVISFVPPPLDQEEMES
Chain of kinases in BCWM.1 cells (Homo sapiens, UniProt Q9NYL2) (Q9NYL2 2-800 limits assumed): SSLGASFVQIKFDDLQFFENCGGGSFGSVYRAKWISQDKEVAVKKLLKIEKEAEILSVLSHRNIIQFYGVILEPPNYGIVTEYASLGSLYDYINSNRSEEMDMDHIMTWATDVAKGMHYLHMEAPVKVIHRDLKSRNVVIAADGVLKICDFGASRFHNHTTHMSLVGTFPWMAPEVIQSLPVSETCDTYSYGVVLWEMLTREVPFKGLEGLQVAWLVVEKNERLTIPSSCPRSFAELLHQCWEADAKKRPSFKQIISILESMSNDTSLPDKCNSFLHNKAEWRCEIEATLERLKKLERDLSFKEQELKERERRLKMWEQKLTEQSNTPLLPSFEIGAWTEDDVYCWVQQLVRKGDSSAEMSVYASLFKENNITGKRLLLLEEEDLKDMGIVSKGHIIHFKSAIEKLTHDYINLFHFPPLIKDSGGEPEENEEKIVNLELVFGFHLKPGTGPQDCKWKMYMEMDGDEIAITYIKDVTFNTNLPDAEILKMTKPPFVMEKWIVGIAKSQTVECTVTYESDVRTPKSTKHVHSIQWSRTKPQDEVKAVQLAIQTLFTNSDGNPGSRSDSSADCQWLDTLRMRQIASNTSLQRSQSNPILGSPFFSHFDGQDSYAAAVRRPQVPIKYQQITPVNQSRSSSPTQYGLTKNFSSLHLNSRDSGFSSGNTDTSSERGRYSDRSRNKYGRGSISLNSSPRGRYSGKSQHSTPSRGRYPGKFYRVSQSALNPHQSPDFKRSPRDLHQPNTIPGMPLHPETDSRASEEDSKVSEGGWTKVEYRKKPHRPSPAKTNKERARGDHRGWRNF
Chain of kinases in BCWM.1 cells (Homo sapiens, UniProt Q13464) (Q13464 2-1354 limits assumed): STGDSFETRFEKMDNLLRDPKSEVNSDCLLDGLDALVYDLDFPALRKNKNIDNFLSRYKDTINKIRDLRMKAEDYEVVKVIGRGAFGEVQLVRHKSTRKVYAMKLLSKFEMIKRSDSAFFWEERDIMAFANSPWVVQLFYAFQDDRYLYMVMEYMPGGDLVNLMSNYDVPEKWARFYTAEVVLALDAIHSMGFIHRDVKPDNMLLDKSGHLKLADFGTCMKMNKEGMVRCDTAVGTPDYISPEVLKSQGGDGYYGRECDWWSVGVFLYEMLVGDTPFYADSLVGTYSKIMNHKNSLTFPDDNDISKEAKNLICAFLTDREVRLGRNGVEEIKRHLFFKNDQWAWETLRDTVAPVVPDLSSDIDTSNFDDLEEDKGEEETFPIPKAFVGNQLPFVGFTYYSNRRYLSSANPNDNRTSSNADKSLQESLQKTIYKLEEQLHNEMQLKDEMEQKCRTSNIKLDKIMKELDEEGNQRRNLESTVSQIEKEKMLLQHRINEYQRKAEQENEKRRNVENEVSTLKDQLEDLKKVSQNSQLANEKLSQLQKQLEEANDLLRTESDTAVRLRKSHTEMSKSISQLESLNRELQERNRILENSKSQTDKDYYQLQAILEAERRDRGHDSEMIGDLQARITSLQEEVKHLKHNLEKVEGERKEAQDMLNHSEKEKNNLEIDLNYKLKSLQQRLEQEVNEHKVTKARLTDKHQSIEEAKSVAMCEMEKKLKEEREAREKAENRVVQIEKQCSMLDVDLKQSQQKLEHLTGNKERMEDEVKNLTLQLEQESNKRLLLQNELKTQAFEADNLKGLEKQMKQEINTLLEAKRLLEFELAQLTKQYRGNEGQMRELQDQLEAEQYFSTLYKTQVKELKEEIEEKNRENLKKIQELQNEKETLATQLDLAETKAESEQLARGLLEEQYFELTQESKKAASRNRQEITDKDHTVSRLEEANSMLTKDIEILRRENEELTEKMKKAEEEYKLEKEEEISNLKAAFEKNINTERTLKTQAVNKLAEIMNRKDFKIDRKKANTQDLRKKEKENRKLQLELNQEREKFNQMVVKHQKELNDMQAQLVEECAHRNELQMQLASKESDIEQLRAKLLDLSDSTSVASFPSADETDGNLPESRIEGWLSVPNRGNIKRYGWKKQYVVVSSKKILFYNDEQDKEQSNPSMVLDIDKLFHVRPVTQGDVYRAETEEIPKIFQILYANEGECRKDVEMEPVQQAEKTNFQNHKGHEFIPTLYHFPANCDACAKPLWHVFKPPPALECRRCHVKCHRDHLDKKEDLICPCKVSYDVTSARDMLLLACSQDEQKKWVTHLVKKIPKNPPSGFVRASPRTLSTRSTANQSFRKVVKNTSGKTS
Chain of kinases in BCWM.1 cells (Homo sapiens, UniProt Q15208) (Q15208 2-465 limits assumed): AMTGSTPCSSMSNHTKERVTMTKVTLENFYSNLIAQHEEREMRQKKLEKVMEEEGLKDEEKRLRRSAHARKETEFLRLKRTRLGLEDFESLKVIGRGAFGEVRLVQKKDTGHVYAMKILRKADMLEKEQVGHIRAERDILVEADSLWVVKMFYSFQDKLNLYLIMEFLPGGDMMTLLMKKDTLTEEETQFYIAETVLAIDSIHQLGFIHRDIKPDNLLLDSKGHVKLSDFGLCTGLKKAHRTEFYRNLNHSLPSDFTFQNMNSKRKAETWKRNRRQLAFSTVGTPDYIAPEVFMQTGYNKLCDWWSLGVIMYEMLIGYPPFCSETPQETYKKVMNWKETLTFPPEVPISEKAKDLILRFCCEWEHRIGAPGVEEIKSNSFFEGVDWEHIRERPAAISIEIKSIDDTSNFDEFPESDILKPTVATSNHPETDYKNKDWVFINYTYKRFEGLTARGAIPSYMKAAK
Chain of kinases in BCWM.1 cells (Homo sapiens, UniProt O95747) (O95747 2-527 limits assumed): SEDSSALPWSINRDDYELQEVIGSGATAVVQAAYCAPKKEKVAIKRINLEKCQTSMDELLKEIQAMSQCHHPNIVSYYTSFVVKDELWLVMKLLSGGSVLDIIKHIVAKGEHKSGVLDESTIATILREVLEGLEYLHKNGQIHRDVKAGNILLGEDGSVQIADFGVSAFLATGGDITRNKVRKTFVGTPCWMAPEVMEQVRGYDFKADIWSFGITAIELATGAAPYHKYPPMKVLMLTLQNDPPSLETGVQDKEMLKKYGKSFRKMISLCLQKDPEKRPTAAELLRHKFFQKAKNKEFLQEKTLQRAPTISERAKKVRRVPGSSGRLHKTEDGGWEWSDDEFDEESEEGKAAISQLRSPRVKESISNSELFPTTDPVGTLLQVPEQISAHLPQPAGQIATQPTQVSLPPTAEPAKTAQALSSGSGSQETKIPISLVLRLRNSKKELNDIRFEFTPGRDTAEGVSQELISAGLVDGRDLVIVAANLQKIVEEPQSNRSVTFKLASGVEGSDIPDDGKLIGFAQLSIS
Chain of kinases in BCWM.1 cells (Homo sapiens, UniProt Q9NZJ5) (Q9NZJ5 30-1116 limits assumed): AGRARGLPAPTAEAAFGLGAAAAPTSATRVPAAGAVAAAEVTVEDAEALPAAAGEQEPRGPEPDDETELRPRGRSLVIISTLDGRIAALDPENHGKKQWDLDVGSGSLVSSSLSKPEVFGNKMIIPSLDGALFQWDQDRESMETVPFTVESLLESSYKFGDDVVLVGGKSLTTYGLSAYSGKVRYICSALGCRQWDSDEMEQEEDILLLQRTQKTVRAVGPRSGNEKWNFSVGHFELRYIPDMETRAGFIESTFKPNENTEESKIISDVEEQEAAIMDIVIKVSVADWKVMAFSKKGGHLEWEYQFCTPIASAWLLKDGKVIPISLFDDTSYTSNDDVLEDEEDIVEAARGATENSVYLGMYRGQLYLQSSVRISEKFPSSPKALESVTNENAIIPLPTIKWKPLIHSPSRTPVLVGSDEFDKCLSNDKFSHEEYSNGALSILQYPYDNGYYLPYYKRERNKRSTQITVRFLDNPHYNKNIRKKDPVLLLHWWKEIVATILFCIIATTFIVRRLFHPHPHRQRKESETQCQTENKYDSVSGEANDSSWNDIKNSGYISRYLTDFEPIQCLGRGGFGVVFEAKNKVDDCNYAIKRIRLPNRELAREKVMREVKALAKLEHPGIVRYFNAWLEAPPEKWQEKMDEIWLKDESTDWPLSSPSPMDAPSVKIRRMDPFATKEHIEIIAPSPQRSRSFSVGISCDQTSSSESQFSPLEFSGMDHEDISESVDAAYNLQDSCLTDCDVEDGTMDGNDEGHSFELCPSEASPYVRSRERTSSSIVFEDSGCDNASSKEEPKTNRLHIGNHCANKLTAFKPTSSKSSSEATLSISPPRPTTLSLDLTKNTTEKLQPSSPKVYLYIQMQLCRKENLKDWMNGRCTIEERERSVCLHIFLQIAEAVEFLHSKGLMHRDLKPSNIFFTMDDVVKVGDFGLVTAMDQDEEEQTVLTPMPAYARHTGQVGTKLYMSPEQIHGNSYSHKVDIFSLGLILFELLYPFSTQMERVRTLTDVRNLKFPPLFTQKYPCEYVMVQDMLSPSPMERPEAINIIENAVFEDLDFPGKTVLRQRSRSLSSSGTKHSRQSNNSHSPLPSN

Structure (SMILES)	% change of MS signal compared to control sample ([1]; Lys2) [%]	% change of MS signal compared to control sample ([1]; Protein Kinase Domain) [%]	% change of MS signal compared to control sample [2] [%]	% change of MS signal compared to control sample [3] [%]	% change of MS signal compared to control sample [4] [%]	% change of MS signal compared to control sample [5] [%]	% change of MS signal compared to control sample [6] [%]	% change of MS signal compared to control sample [7] [%]	% change of MS signal compared to control sample [8] [%]	% change of MS signal compared to control sample [9] [%]	% change of MS signal compared to control sample [10] [%]	% change of MS signal compared to control sample [11] [%]	% change of MS signal compared to control sample [12] [%]	% change of MS signal compared to control sample [13] [%]	% change of MS signal compared to control sample [14] [%]	% change of MS signal compared to control sample [15] [%]	% change of MS signal compared to control sample [16] [%]	% change of MS signal compared to control sample [17] [%]	% change of MS signal compared to control sample [18] [%]	% change of MS signal compared to control sample [19] [%]	other results
C=CC(=O)N1CC[C@H](Nc2nccc(Nc3ncc(C(=O)Nc4c(C)cccc4C)s3)n2)C1 [Example I-3]	43.5	32.6	13	−17	−10.1	20.5	5.7	2.3	1.6	−12.8	66.2	−9.6	7.4	2.6	13.8	0.2	0.6	10.4	5.5	−77.2	% change of MS signal compared to control sample [20]: −1.8%; % change of MS signal compared to control sample [21]: 5.1%; % change of MS signal compared to control sample [22]: 1%; % change of MS signal compared to control sample [23]: −3.3%; % change of MS signal compared to control sample [24]: −1.2%; % change of MS signal compared to control sample [25]: −3.4%; % change of MS signal compared to control sample [26]: −15.6%
CCC(=O)N1CC[C@H](Nc2nccc(Nc3ncc(C(=O)Nc4c(C)cccc4C)s3)n2)C1 [Example I-9]	−7.8	−2.9	−6	13.5	−17.7	−8.2	11.3	−4.2	−9.3	22.1	−1.2	−15.1	−3.7	−7.3	2.7	2.1	−11.6	−12.9	−11	15.9	% change of MS signal compared to control sample [20]: 28.5%; % change of MS signal compared to control sample [21]: −14.1%; % change of MS signal compared to control sample [22]: 5.1%; % change of MS signal compared to control sample [23]: −4.9%; % change of MS signal compared to control sample [24]: −6.5%; % change of MS signal compared to control sample [25]: −19.7%; % change of MS signal compared to control sample [26]: 23.4%
